According to US8048872B2, “Treatment of hyperproliferative diseases with vinca alkaloid N-oxide and analogs” (Stat of Oregon Acting by and Through The Oregon State Board …, priority 2006, dated 2011):
“And” between values parts separate entries of the source, which are not always exact repeats. Identical values can stand only once. Like-named read-outs stand apart in the source and are kept apart here.

Legend:
[1] = in vivo; conditions: female, nude, mouse, iv
[2] = in vivo; conditions: B6D2F1, mouse, in vivo, iv
Method: (§1) For example, B6D2F1 mice (n=8/group) were inoculated subcutaneously (sc) in the right flank with 1×10^6 murine L1210 leukemic tumor cells. […] Test agents were administered on multiple treatment regimen (q3d×5) to yield optimal dose schedule benefit. Vehicle control treated mice served as the negative control group; mice treated with the bioreduced parent compounds, vincristine and vinblastine, dosed at their […] (MTDs), served as the positive control groups. Tumors were measured with calipers twice weekly and tumor volume calculated using the formula: Tumor Volume (mm^3)=((width)^2×length)/2. Animals were monitored for signs of toxicity and weighed daily for the first 5 days of the study and then twice-weekly until the study end. As pre-defined in the protocol, each animal was actively euthanized when its tumor reached the pre-determined endpoint size of 2000 mm^3 or at the conclusion of the study (day 37) whichever came first. The time to endpoint (TTE) was calculated for each mouse as TTE (days)=(log10(endpoint volume mm^3)−b)/m where b is the intercept and m is the slope of the line obtained by linear regression of a log-transformed tumor growth data set. Treatment outcome was determined from tumor growth delay (TGD) which is defined as the increase in median TTE in a treatment (T) group as compared to the control (C) group (TGD=T−C) expressed in days or as a percentage of the median TTE of the control group % TGD=((T−C)/C)×100. […] Statistical significance between the treated vs. control groups was evaluated by logrank analysis.
(§2) This model was developed by subcutaneously inoculating B6D2F1 mice (n=8/group) with 1×10^6 murine P388 leukemic tumor cells using similar methodology to that described above for L1210. […] Agents were administered on multiple treatment regimen (q3d×5) to yield optimal dose schedule benefit. Efficacy of treatment with the N-oxide analogs was determined by Tumor Growth Delay (TGD) and Kaplan-Meier survival analysis as described for L1210, the exception being that the conclusion of the study was day 45 or the predefined endpoint size of 2000 mm^3 whichever came first. Vehicle control treated mice served as the negative control group; mice treated with the standard agents, vincristine and vinblastine, dosed at their MTDs, served as the positive control groups.

[3] = system: murine P388 leukemic tumor cells; assay: in vivo; conditions: P388
Method: as §1, §2

[4] = 0.6-1 mg/kg iv q3d×5; during the course of treatment
Method: Body weights were monitored twice weekly and up to 2 weeks following treatment. Mice were also injected iv with 0.6 or 1 mg/kg vincristine using the same q3d×5 schedule as a positive control.

[5] = system: human H460 lung adenocarcinoma
Method: (§3) Tumor cell line were cultured in DMEM-10% FBS under standard conditions. One-hundred mm plastic culture dishes were seeded with 1×10^6 tumor cells and treated with vinca alkaloids or N-oxide analogs at a dose range of 0.01-100 nM. Cells were exposed with gentle rocking to a constant level of low oxygen (0.2% O2-5% CO2-balance N2) in a hypoxia apparatus (INVIVO2400 Hypoxia Workstation, Ruskin Technology) for 14 hr at 37° C. Identically treated cells were incubated under normoxia (air-5% CO2) at 37° C. Cells were harvested and replated in fresh medium at a density of 1×10^3 cells/well in 48-well plastic culture plates to assess viability 24-72 hr later. Briefly, Alamar Blue was added to replicate wells on Day 0 and Day 3, and cells were incubated for a further 3-6 hr at 37° C. before fluorescence readings using a plate reader (530-560 nm excitation, 590 emission). The percent inhibition of proliferation was calculated and plotted against control-treated cells at each drug concentration. […] The Hypoxia Cytotoxicity Ratio (HCR) was determined as the ratio of the IC50 of the compound under normoxic conditions vs. hypoxic conditions.

[6] = system: murine L1210 leukemic tumor cells; assay: in vivo; conditions: L1210
Method: as §1

[7] = in vivo; conditions: B6D2F1, mouse, in vivo, iv; remark: listed apart in the source
Method: as §1

[8] = system: human H460 lung adenocarcinoma; assay: cells; conditions: NCI-H460, 14 h
Method: as §3

[9] = in vivo; conditions: female, nude, mouse, iv; remark: listed apart in the source
Method: In one example, female nude mice (n=10) were inoculated subcutaneously with 15×10^6 human K562 myelogenous leukemia cells in a 1:1 ratio with matrigel on the right flank. Tumor volumes were monitored and calculated using the formula: Tumor volume=(a^2×b/2) where ‘a’ is the smallest diameter and ‘b’ is the largest diameter. Once the established tumors reached approximately 75-150 mm^3 (individual tumor volumes may range from […]) the mice were assigned to the various vehicle control and treatment groups such that the mean tumor volumes in the treated groups were within 10% of the mean tumor weight in the vehicle control group. On the same day (day 1) and days 4, 7, 10, and 13, vinca-alkaloid N-oxide analogs (VCR-NO, VBL-NO) were administered intravenously according to a q3d×5 schedule. Mice were also treated with vehicle (negative control) and the standard agents, vinblastine and vincristine (positive controls). Tumor volumes were recorded three times a week starting when tumors were palpable and including the day of study termination. Animals were monitored for signs of toxicity and body weights were recorded twice a week starting on the first day of treatment and including the day of study termination. […] The mean day of sacrifice were calculated to determine the tumor growth delay and tumor growth inhibition effects of each test article as compared to vehicle control. […] Statistical significance between the treated vs. control groups was evaluated by logrank analysis.

[10] = system: metastatic cancer of the colon or rectum; conditions: 350 mg/m^2 30-minute iv infusion once every 3 weeks; 132 previously treated patients; cited from earlier work
[11] = cited from earlier work
[12] = system: human HT29 colorectal adenocarcinoma; parameters: species or system mouse; conditions: in vivo, ip, 100 mg/kg
[13] = Formation of clear solution in aqueous vehicles; type: physicochemical; conditions: de-ionized water and 5% dextrose/water solutions
[14] = Grade III-IV, Naïve pts (n = 48)
[15] = Grade III-IV, Pre-treated patients (n = 165)
[16] = acute promyelocytic leukemia patients

## CC[C@]1(O)C[C@H]2CN(CCc3c([nH]c4ccccc34)[C@@](C(=O)OC)(c3cc4c(cc3OC)N(C=O)[C@H]3[C@@](O)(C(=O)OC)[C@H](OC(C)=O)[C@]5(CC)C=CCN6CC[C@]43[C@@H]65)C2)C1 [Vincristine, vincristine]
[1]
  MTD: 1.5 mg/kg
[2]
  MTD: 1 mg/kg
[3]; 1 mg/kg i.v. q3d×5
  Median Survival: 20.8 days
  Tumor Growth Delay: 54%
[4]
  body weight loss: significant body weight loss
[5]
  Hypoxia Cytotoxicity Ratio (HCR): 1.1
[6]; 1 mg/kg i.v. q3d×5
  Median Survival: 19.6 days
  Tumor Growth Delay: 8%
[7]
  MTD: 1 mg/kg
[8]; read-out: IC50 Air
  IC50: 0.017 µM
[8]; read-out: IC50 Hypoxia
  IC50: 0.015 µM
[9]
  MTD: 1.5 mg/kg

## CC[C@]1(O)C[C@@H]2CN(CCc3c([nH]c4ccccc34)[C@@](C(=O)OC)(c3cc4c(cc3OC)N(C)[C@H]3[C@@](O)(C(=O)OC)[C@H](OC(C)=O)[C@]5(CC)C=CCN6CC[C@]43[C@@H]65)C2)C1 [Vinblastine, vinblastine]
4 mg/kg ip q3d×5
  median day of death: 10.8 days
6 mg/kg ip q3d×5
  median day of death: 9.8 days
[3]; 5 mg/kg i.v. q3d×5
  Median Survival: 30.8 days
  Tumor Growth Delay: 149%
[5]
  Hypoxia Cytotoxicity Ratio (HCR): 1
[6]; 5 mg/kg i.v. q3d×5
  Median Survival: 24.3 days
  Tumor Growth Delay: 34%
[7]
  MTD: 5 mg/kg
[8]; read-out: IC50 Air
  IC50: 0.02 µM
[8]; read-out: IC50 Hypoxia
  IC50: 0.017 µM
[9]
  MTD: 2.5 mg/kg

## CCc1c2c(nc3ccc(OC(=O)N4CCC(N5CCCCC5)CC4)cc13)-c1cc3c(c(=O)n1C2)COC(=O)[C@]3(O)CC [CPT-11, 7-ethyl-10[4-(1-piperidino)-1-piperidino]carbonyloxycamptothecin, reference compound]
[10]
  intent-to-treat response rate: 12.1%
[11]; [14]
  Alopecia: Alopecia 54%
  Delayed Diarrhea: Delayed Diarrhea 35%
  Nausea/Vomiting: Nausea/Vomiting 13%
  Thrombocytopenia: Thrombocytopenia 2%
[11]; Grade III-IV, Naïve pts
  Leukopenia/Neutropenia Toxicity: 48%
[11]; [15]
  Alopecia: Alopecia 53%
  Delayed Diarrhea: Delayed Diarrhea 39%
  Nausea/Vomiting: Nausea/Vomiting 22%
  Thrombocytopenia: Thrombocytopenia 3%
[11]; Grade III-IV, Pretreated pts
  Leukopenia/Neutropenia Toxicity: 47%
[11]; Grade III-IV
  Documented Infection: 5%
  Neutropenic Fever: Neutropenic Fever 14%
[11]; Naïve pts (n = 48)
  Anemia Grade III-IV: 8%
[11]; Pre-treated patients (n = 165)
  Anemia Grade III-IV: 10%
[12]
  Tumor Growth Delay: 60%

## Nc1ccn([C@@H]2O[C@H](CO)[C@@H](O)C2(F)F)c(=O)n1 [gemcitabine, reference compound]
[11]; human, in vivo, iv
  Constipation: Constipation 3%
  Deep Vein Thrombosis: 3%
  Diarrhea: Diarrhea 2%
  Edema: Edema 5%
  Fever: Fever 3%
  Increased Bilirubin: Increased Bilirubin 41%
  Neutropenic Fever: Neutropenic Fever 3%
  Pain: Pain 2%
  Respiratory: Respiratory 5%
  State of Consciousness: Consciousness 2%
  patients with grade III-IV respiratory toxicity: 2 out of 40
[11]; human, in vivo
  Anemia Grade III: Anemia Grade III 14.3%
  Hepatotoxicity: (Grade III) 14.3%
  Infection: (Grade III) 3.6%
  Leukopenia: 10.7%
  Leukopenia/Neutropenia Toxicity: Grade III 19%
  Skin Rash: (Grade III) 3.6%

## Vinblastine N-Oxide Dihydrochloride
[13]
  forms a stable clear solution at: about 20 mg/mL

## Nc1nc(F)nc2c1ncn2[C@@H]1O[C@H](CO)[C@@H](O)[C@@H]1O [Fludarabine]
[11]; Grade III-IV
  Diarrhea: Diarrhea 2%
  Nausea: Nausea 3%
  Neuropathy: Neuropathy 4%
  Stomatitis: Stomatitis 2%
  Thrombocytopenia: Thrombocytopenia 25%
[11]; Grade IV (of cycles)
  Neutropenia: Neutropenia 56%
[11]; human, in vivo
  Febrile Infection During Cycles 1-3: Cycles 1-3 30%

## Alemtuzumab
[11]; Grade III-IV
  Anemia Grade III-IV: 38%
  Bronchitis/Pneumonitis: 13%
  Dyspnea: Dyspnea 9%
  Fatigue: Fatigue 5%
  Fever: Fever 19%
  Hypotension: Hypotension 5%
  Neutropenia: 64%
  Pneumonia: Pneumonia 10%
  Rigors: Rigors 16%
  Sepsis: Sepsis 10%
  Thrombocytopenia: Thrombocytopenia 50%
  Urticaria: Urticaria 5%

## Gemcitabine + Cisplatin
[11]; Grade III-IV
  Anemia Grade III-IV: 25% and 27%
  Cardiac Dysrhythmia: 2.8%
  Dyspnea: Dyspnea 7%
  Elevated Creatinine: Elevated Creatinine 4.8%
  Nausea: Nausea 27%
  Neurohearing: Neurohearing 6%
  Neutropenic Sepsis: Neutropenic Sepsis 1%
  Pulmonary: Pulmonary 3%
  Vomiting: Vomiting 23%
[11]; Grade III
  Alopecia: 10.5%
  Diarrhea: Diarrhea (Grade III) 3%
  Granulocytopenia: Grade III 21.7%
  Hematuria: 4.5%
  Nausea/Vomiting: (Grade III) 22%
  Neuromotor: 11.5%
  Neutropenia: 41.2%
[11]; Grade IV
  Granulocytopenia: Grade IV 35.3%
  Neutropenia: 29.9%

## CC1=C(/C=C/C(C)=C/C=C/C(C)=C/C(=O)O)C(C)(C)CCC1 [all-trans-retinoic acid, reference compound]
[11]; [16]
  lethal pulmonary toxicity: 2%
  life-threatening pulmonary toxicity: 11%
  patients developing grade III or IV pulmonary toxicity (total): Twenty
  severe pulmonary toxicity: 7%

## CC(=O)O[C@H]1C(=O)[C@@]2(C)[C@H]([C@H](OC(=O)c3ccccc3)[C@]3(O)C[C@H](OC(=O)[C@H](O)[C@@H](NC(=O)c4ccccc4)c4ccccc4)C(C)=C1C3(C)C)[C@]1(OC(C)=O)CO[C@@H]1C[C@@H]2O [Paclitaxel]
[11]; human, in vivo, iv
  Increased AST: Increased AST 5%
  Leukopenia/Neutropenia Toxicity: Grade III-IV 23%

## COc1cccc2c1C(=O)c1c(O)c3c(c(O)c1C2=O)C[C@@](O)(C(=O)CO)C[C@@H]3O[C@H]1C[C@H](N)[C@H](O)[C@H](C)O1 [Doxorubicin]
[11]; human, in vivo, iv
  Cardiotoxicity: Cardiotoxicity 1%
  Gastrointestinal: Gastrointestinal 3%
  Infection: Infection 3%
  Leukopenia/Neutropenia Toxicity: Grade III-IV 8%
  Leukopenia/Neutropenia Toxicity Grade III-IV: Grade III-IV 51%
  Leukopenia/Neutropenia Toxicity Grade IV: Grade IV 21%
  Mucositis: Mucositis 6%
  Nausea/Vomiting: Nausea/Vomiting 13%
  Thrombocytopenia: Thrombocytopenia 2%
